These results are taken from article PMC10883907, “Phage-display reveals interaction of lipocalin allergen Can f 1 with a peptide resembling the antigen binding region of a human γδT-cell receptor” (Biological Chemistry, 2020).

In this test the target is Can f 1 (Canis lupus, UniProt O18873). Briefly: fluorescence titration (excitation […] nm, emission […] nm). Format: binding.
Can f 1, sequence (O18873 19-174): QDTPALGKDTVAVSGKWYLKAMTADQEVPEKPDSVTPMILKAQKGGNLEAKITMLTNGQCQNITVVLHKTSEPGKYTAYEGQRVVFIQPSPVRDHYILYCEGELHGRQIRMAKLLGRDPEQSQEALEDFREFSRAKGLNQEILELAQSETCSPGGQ

As usually defined, the Kd is the concentration at which binding is half-saturated. A lower Kd goes with a tighter complex. In turn, `O=S(=O)(O)c1cccc2cccc(Nc3ccccc3)c12` [ANS, 8-anilinonaphthalene-1-sulfonic acid] registered a dissociation constant (Kd) of 2100 nM.
